The text below walks through data of patent US12139520B2 (priority 2020, dated 2024).

In one experiment the target is T1, hAMY3 receptor (Homo sapiens, UniProt O60896+P30988).
T1 sequence (P30988 25-474): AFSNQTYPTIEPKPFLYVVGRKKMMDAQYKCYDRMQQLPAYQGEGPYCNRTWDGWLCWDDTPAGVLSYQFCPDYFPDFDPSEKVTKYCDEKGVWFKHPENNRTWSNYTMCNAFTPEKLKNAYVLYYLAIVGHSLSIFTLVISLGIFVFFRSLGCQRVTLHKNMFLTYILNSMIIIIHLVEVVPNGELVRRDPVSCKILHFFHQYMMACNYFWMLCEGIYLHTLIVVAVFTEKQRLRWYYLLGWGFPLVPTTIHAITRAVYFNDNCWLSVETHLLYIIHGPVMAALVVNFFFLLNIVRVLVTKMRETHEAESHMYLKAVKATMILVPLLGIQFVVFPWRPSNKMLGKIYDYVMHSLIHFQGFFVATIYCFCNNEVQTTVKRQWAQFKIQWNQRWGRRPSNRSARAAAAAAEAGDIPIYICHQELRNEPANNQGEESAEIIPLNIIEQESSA
T1 sequence (O60896 24-148 partner): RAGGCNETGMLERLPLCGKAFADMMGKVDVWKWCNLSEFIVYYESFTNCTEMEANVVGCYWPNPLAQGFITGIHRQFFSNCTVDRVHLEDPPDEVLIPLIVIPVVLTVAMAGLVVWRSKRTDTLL
Description: cAMP assay for in vitro receptor activation, hAMY3-R. The following applies: cAMP assay, hAMY3 receptor; read-out: hAMY3R EC50. The class given is cell-based. The method, boiled down:
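Stable hAMY3 cells; DPBS + 0.05% casein + 0.5 mM IBMX; graded compound doses, 30 min, RT; cAMP via HTRF Gs kit, TR-FRET read at 1 h.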
A general note: cAMP levels reflect the balance of adenylyl cyclase and phosphodiesterase activity.

For a further experiment, the target named is hAM1 receptor (Homo sapiens, UniProt O60895+Q16602). Kind of experiment: cAMP assay for in vitro receptor activation, hAM1-R. The class given is cell-based. The following applies: cAMP assay, hAM1 receptor; read-out: hAM1R EC50. The method, boiled down: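 Stable hAM1 cells (monoclonal) plated 8000/well; buffer DPBS, 0.05% casein, 0.5 mM IBMX; cAMP read-out.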
hAM1 receptor, sequence (Q16602 23-461): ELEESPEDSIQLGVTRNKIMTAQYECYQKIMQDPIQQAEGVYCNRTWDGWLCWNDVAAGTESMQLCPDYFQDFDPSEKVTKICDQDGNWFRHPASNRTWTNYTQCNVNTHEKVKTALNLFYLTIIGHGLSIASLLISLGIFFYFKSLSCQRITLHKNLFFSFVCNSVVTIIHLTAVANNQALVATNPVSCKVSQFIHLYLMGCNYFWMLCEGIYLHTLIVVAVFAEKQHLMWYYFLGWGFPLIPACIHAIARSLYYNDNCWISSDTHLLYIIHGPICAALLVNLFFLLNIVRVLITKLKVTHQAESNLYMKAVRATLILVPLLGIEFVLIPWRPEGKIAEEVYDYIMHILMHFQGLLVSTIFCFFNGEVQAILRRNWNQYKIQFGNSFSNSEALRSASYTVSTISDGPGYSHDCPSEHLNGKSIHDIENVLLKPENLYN
hAM1 receptor, sequence (O60895 43-175 partner): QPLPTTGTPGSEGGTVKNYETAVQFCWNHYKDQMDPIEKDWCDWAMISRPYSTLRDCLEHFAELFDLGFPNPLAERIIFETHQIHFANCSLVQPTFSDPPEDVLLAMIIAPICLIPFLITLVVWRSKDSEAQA

Numbered stars: 1 amine (or outer) side, 2 acyl side, 3 side chain; on linkers, the order of the positions; unused ones are H or OH. Bridge positions count the residues as written; N and C are the ends. Square brackets hold non-standard residues; d marks the D form. Side chains are listed from the residue outwards. Peptide text beside a SMILES is read from it. * marks the point of attachment. C20 diacid = O=C(O)CCCCCCCCCCCCCCCCCCC(=O)*; γGlu = O=C(O)[C@H](CCC(=O)[*:2])N[*:1]; Hyp = O=C(O)[C@@H]1C[C@@H](O)CN1; AEEA = NCCOCCOCC(=O)O

The term EC50 denotes the concentration needed to bring the measured effect to its halfway point. As for `CC[C@H](C)[C@H](NC(=O)[C@H](CCC(N)=O)NC(=O)[C@H](CCC(=O)O)NC(=O)[C@H](C)NC(=O)[C@H](CC(C)C)NC(=O)[C@H](CCCNC(=N)N)NC(=O)[C@H](CCC(N)=O)NC(=O)[C@@H](NC(=O)[C@@H](NC(=O)[C@@H]1CSSC[C@H](NC(=O)[C@@H](N)CCCCN)C(=O)N[C@@H](CC(N)=O)C(=O)N[C@@H]([C@@H](C)O)C(=O)N[C@@H](C)C(=O)N[C@@H]([C@@H](C)O)C(=O)N1)[C@@H](C)O)C(C)C)C(=O)N[C@@H](Cc1ccc(O)cc1)C(=O)N[C@@H](CCC(N)=O)C(=O)N[C@@H](Cc1ccccc1)C(=O)N[C@H](C(=O)N[C@@H](CC(=O)O)C(=O)N[C@@H](CCCCN)C(=O)N[C@@H](CC(=O)O)C(=O)N[C@@H](CCCCN)C(=O)N[C@@H](CC(=O)O)C(=O)N[C@@H](CCCCNC(=O)COCCOCCNC(=O)COCCOCCNC(=O)CC[C@H](NC(=O)CCCCCCCCCCCCCCCCCCC(=O)O)C(=O)O)C(=O)N[C@H](C(=O)N[C@@H](C)C(=O)N1CCC[C@H]1C(=O)N1CCC[C@H]1C(=O)N[C@H](C(=O)N[C@@H](CC(N)=O)C(=O)N[C@H](C(=O)NCC(=O)N[C@@H](CO)C(=O)N[C@@H](CC(N)=O)C(=O)NCC(=O)N1C[C@H](O)C[C@H]1C(N)=O)C(C)C)[C@@H](C)O)C(C)C)[C@@H](C)O` [compound 41] (H-KCNTATCTVQRLAEQIYQFTDKDKDK([AEEA-AEEA-γGlu-C20 diacid])VAPPTNVGSNG[Hyp]-NH2; disulfide 2-7; N-terminus assumed), the half-maximal effective concentration (EC50) at hAMY3 receptor was 0.01 nM; at hAM1 receptor it was more than 5000 nM.
For `CC[C@H](C)[C@H](NC(=O)[C@H](CCC(N)=O)NC(=O)[C@H](CCC(=O)O)NC(=O)[C@H](C)NC(=O)[C@H](CC(C)C)NC(=O)[C@H](CCCNC(=N)N)NC(=O)[C@H](CCC(N)=O)NC(=O)[C@@H](NC(=O)[C@@H](NC(=O)[C@@H]1CSSC[C@H](NC(=O)[C@@H](N)CCCCN)C(=O)N[C@@H](CC(N)=O)C(=O)N[C@@H]([C@@H](C)O)C(=O)N[C@@H](C)C(=O)N[C@@H]([C@@H](C)O)C(=O)N1)[C@@H](C)O)C(C)C)C(=O)N[C@@H](Cc1ccc(O)cc1)C(=O)N[C@@H](CCC(N)=O)C(=O)N[C@@H](Cc1ccccc1)C(=O)N[C@H](C(=O)N[C@@H](CC(=O)O)C(=O)N[C@@H](CCCCN)C(=O)N[C@@H](CC(=O)O)C(=O)N[C@@H](CCCCN)C(=O)N[C@@H](CC(=O)O)C(=O)N[C@@H](CC(N)=O)C(=O)N[C@H](C(=O)N[C@@H](C)C(=O)N1CCC[C@H]1C(=O)N1CCC[C@H]1C(=O)N[C@@H](Cc1ccc(O)cc1)C(=O)N[C@@H](CC(N)=O)C(=O)N[C@@H](CCC(=O)O)C(=O)NCC(=O)N[C@@H](CO)C(=O)N[C@@H](CC(N)=O)C(=O)NCC(=O)N1C[C@H](O)C[C@H]1C(N)=O)C(C)C)[C@@H](C)O` [compound 44] (H-KCNTATCTVQRLAEQIYQFTDKDKDNVAPPYNEGSNG[Hyp]-NH2; disulfide 2-7; N-terminus assumed) the same measures were 0.01 nM and more than 5000 nM.
In the case of `CC[C@H](C)[C@H](NC(=O)[C@H](CCC(N)=O)NC(=O)[C@H](Cc1c[nH]cn1)NC(=O)[C@H](C)NC(=O)[C@H](CC(C)C)NC(=O)[C@H](CCCNC(=N)N)NC(=O)[C@H](CCC(N)=O)NC(=O)[C@@H](NC(=O)[C@@H](NC(=O)[C@@H]1CSSC[C@H](NC(=O)[C@H](CCCCN)NC(=O)CC[C@H](NC(=O)CCCCCCCCCCCCCCCCCCC(=O)O)C(=O)O)C(=O)N[C@@H](CC(N)=O)C(=O)N[C@@H]([C@@H](C)O)C(=O)N[C@@H](CO)C(=O)N[C@@H]([C@@H](C)O)C(=O)N1)[C@@H](C)O)C(C)C)C(=O)N[C@@H](Cc1ccc(O)cc1)C(=O)N[C@@H](CCC(N)=O)C(=O)N[C@@H](Cc1ccccc1)C(=O)N[C@H](C(=O)N[C@@H](CC(=O)O)C(=O)N[C@@H](CCCCN)C(=O)N[C@@H](CC(=O)O)C(=O)N[C@@H](CCCCN)C(=O)N[C@@H](CC(=O)O)C(=O)N[C@@H](CC(N)=O)C(=O)N[C@H](C(=O)N[C@@H](C)C(=O)N1CCC[C@H]1C(=O)N1CCC[C@H]1C(=O)N[C@H](C(=O)N[C@@H](CC(N)=O)C(=O)N[C@H](C(=O)NCC(=O)N[C@@H](CO)C(=O)N[C@@H](CC(N)=O)C(=O)NCC(=O)N1C[C@H](O)C[C@H]1C(N)=O)C(C)C)[C@@H](C)O)C(C)C)[C@@H](C)O` [compound 50] ({C20 diacid-γGlu}-KCNTSTCTVQRLAHQIYQFTDKDKDNVAPPTNVGSNG[Hyp]-NH2; disulfide 2-7), the EC50 is 0.011 nM at hAMY3 receptor and more than 5000 nM on hAM1 receptor.
For `CC[C@H](C)[C@H](NC(=O)[C@H](CCC(N)=O)NC(=O)[C@H](CCC(=O)O)NC(=O)[C@H](C)NC(=O)[C@H](CC(C)C)NC(=O)[C@H](CCCNC(=N)N)NC(=O)[C@H](CCC(N)=O)NC(=O)[C@@H](NC(=O)[C@@H](NC(=O)[C@@H]1CSSC[C@H](NC(=O)[C@H](CCCCN)NC(=O)CC[C@H](NC(=O)CCCCCCCCCCCCCCCCCCC(=O)O)C(=O)O)C(=O)N[C@@H](CC(N)=O)C(=O)N[C@@H]([C@@H](C)O)C(=O)N[C@@H](C)C(=O)N[C@@H]([C@@H](C)O)C(=O)N1)[C@@H](C)O)C(C)C)C(=O)N[C@@H](Cc1ccc(O)cc1)C(=O)N[C@@H](CCC(N)=O)C(=O)N[C@@H](Cc1ccccc1)C(=O)N[C@H](C(=O)N[C@@H](CC(=O)O)C(=O)N[C@@H](CCCCN)C(=O)N[C@@H](CC(=O)O)C(=O)N[C@@H](CCCCN)C(=O)N[C@@H](CC(=O)O)C(=O)N[C@@H](CC(N)=O)C(=O)N[C@H](C(=O)N[C@@H](C)C(=O)N1CCC[C@H]1C(=O)N1CCC[C@H]1C(=O)N[C@H](C(=O)N[C@@H](CC(N)=O)C(=O)N[C@H](C(=O)NCC(=O)N[C@@H](CO)C(=O)N[C@@H](CC(N)=O)C(=O)NCC(=O)N1C[C@H](O)C[C@H]1C(N)=O)C(C)C)[C@@H](C)O)C(C)C)[C@@H](C)O` [compound 51] ({C20 diacid-γGlu}-KCNTATCTVQRLAEQIYQFTDKDKDNVAPPTNVGSNG[Hyp]-NH2; disulfide 2-7) the same measures were 0.011 nM and more than 5000 nM.
On the same counts, the results for `CC[C@H](C)[C@H](NC(=O)[C@H](CCC(N)=O)NC(=O)[C@H](Cc1c[nH]cn1)NC(=O)[C@H](C)NC(=O)[C@H](CC(C)C)NC(=O)[C@H](CCCNC(=N)N)NC(=O)[C@H](CCC(N)=O)NC(=O)[C@@H](NC(=O)[C@@H](NC(=O)[C@@H]1CSSC[C@H](NC(=O)[C@@H](N)CCCCN)C(=O)N[C@@H](CC(N)=O)C(=O)N[C@@H]([C@@H](C)O)C(=O)N[C@@H](C)C(=O)N[C@@H]([C@@H](C)O)C(=O)N1)[C@@H](C)O)C(C)C)C(=O)N[C@@H](Cc1ccc(O)cc1)C(=O)N[C@@H](CCC(N)=O)C(=O)N[C@@H](Cc1ccccc1)C(=O)N[C@H](C(=O)N[C@@H](CC(=O)O)C(=O)N[C@@H](CCCCN)C(=O)N[C@@H](CC(=O)O)C(=O)N[C@@H](CCCCN)C(=O)N[C@@H](CC(=O)O)C(=O)N[C@@H](CC(N)=O)C(=O)N[C@H](C(=O)N[C@@H](C)C(=O)N[C@@H](C)C(=O)N1CCC[C@H]1C(=O)N[C@H](C(=O)N[C@@H](CC(N)=O)C(=O)N[C@H](C(=O)NCC(=O)N[C@@H](CO)C(=O)N[C@@H](CC(N)=O)C(=O)NCC(=O)N1C[C@H](O)C[C@H]1C(N)=O)C(C)C)[C@@H](C)O)C(C)C)[C@@H](C)O` [compound 53] (H-KCNTATCTVQRLAHQIYQFTDKDKDNVAAPTNVGSNG[Hyp]-NH2; disulfide 2-7; N-terminus assumed) are 0.011 nM and more than 5000 nM.
